Measured values from patent US12630565B2, “DNA-dependent protein kinase inhibitor” (DIZAL (JIANGSU) PHARMACEUTICAL CO., LTD., priority 2019, dated 2026).

Assays:
Rat hepatocyte = experiment: Metabolic stability assay (rat hepatocyte Clint); assay type: in vitro ADME; conditions: 1 μM compound, cryopreserved hepatocytes 1 million cells per mL
Protocol: Viability of cryopreserved hepatocytes was determined using trypan blue and the cell conc. was adjusted to […] with buffer. 1 μM compound (in Acetonitrile; 0.01% DMSO) was incubated with 250 μL of hepatocytecells (1 million cells per mL) in a 96 deep well plate. Reaction was stopped at different time points (0, 0.5, 5, 15, 30, 45, 60, 80, 100 and 120 min) by addition of 3 volumes of chilled acetonitrile to 20 μL of reaction mixture and centrifuged at 4° C. for 15 min. 40 μL of supernatant was diluted to 200 μL with pure water and analyzed using LC-MS/MS.
In vitro hepatocyte clearance was estimated based on determination of elimination half-life (T1/2) of compounds disappearance from their initial concentrations. Peak area ratios of each compound (test or control) to IS was calculated. Drug elimination rate constant k (min−1), T1/2 (min), and in vitro intrinsic clearance CLint (μL/min/E6) was calculated according to the following equations: […]
Where Chep (cells×μL^−1) is the cell concentration in the incubation system.

[1] = Metabolic stability assay (human microsomal Clint); assay type: in vitro ADME; conditions: human, pooled human liver microsomes, pH 7.4, 1 μM compound, 1 mg/mL microsomes, 1 mM NADPH, 37° C.
Protocol: 1 μM compound was incubated with 1 mg/mL of microsomes (Pooled HLM with 20 mg/ml protein cone) at 37° C. in 250 μL of buffer (100 mM phosphate buffer, pH-7.4) containing 1 mM NADPH solution. 20 μL of incubation mix was quenched with 5 volumes chilled acetonitrile at different time points 0, 0.5, 5, 10, 15, 20 and 30 min in a fresh 96 well plate. The quench plate was centrifuged at 4000 rpm for 15 min. 40 μL of supernatant was diluted to 200 μL with pure water and analyzed using LC-MS/MS.
In vitro intrinsic clearance of the drugs in the microsome CLint (μl/min/mg) was calculated in the similar manner as the CLint in the hepatocyte.

MDR1, BCRP = experiment: MDCKII-MDR1-BCRP efflux assay; assay type: in vitro ADME; conditions: dog, pH 7.4, 5 μM compound, HBSS pH 7.4, read-out: MDCK-Mdr1-BCRP efflux ratio
Protocol: The apical-to-basolateral (A-B) and basolateral-to-apical (B-A) transport of compound in HBSS (25 mM HEPES, pH 7.4) was measured across MDCKII-MDR1-BCRP cell monolayers. Incubations were performed at approximately 37° C. for 120 min, with functionality of the test system being confirmed using 5 μM digoxin as a positive control substrate. Transport of 5 μM compound and control compound were determined by quantifying substrate concentration in the incubation medium of donor compartment at the beginning of the incubation period, and both donor and receiver compartments at the end of the incubation period. The data was used to calculate the apparent permeability (Papp). All incubations were performed in triplicate and integrity of the cell monolayers was confirmed using the marker Lucifer yellow.
The permeability coefficient Pexact (cm/s) was calculated using the equation: […]
The Pexact ratio was calculated using the equation: […]
The efflux ratio was calculated using the equation: […]
Where dCr/dt is the cumulative concentration of compound in the receiver chamber as a function of time (μM/s); Vr is the solution volume in the receiver chamber (0.1 mL on the apical side, 0.3 mL on the basolateral side); A is the surface area for the transport, i.e. 0.11 cm2 for the area of the monolayer; CO is the initial concentration in the donor chamber (μM).

[2] = molecular target: Full length human DNAPK protein (Homo sapiens, UniProt P78527); experiment: DNA-PK enzymatic assay (TR-FRET); assay type: biochemical; conditions: 10 μM ATP, 1.6 μM peptide substrate

Cc1cc2ncnn2cc1Nc1ncc2c(n1)c(C1CCOCC1)cn2C [Example 3, 7-methyl-N-(5-methyl-7-(tetrahydro-2H-pyran-4-yl)-5H-pyrrolo[3,2-d]pyrimidin-2-yl)-[1,2,4]triazolo[1,5-a]pyridin-6-amine]
Rat hepatocyte CLint (μl/min/10^−6 cells) (Rat hepatocyte): 9.8 μl/min/10^−6 cells
microsomal CLint at 1 μM [1]: 39.7 µL/min/mg
efflux ratio at 120 min, 5 μM (MDR1, BCRP): 3.1
IC50 [2]: 10.2 nM

Cc1cc2ncnn2cc1Nc1ncc2c(C)nn(CC3CC3)c2n1 [Example 38, 1-(cyclopropylmethyl)-3-methyl-N-(7-methyl-[1,2,4]triazolo[1,5-a]pyridin-6-yl)-1H-pyrazolo[3,4-d]pyrimidin-6-amine]
Rat hepatocyte CLint (μl/min/10^−6 cells) (Rat hepatocyte): 15.3 μl/min/10^−6 cells
microsomal CLint at 1 μM [1]: 34.2 µL/min/mg
efflux ratio at 120 min, 5 μM (MDR1, BCRP): 1.4
IC50 [2]: 11.1 nM

Cc1cc2ncnn2cc1Nc1ncc2c(C)nn(C3CCOC(C)(C)C3)c2n1 (single isomer, unassigned) [Example 116, 1-(2,2-dimethyltetrahydro-2H-pyran-4-yl)-3-methyl-N-(7-methyl-[1,2,4]triazolo[1,5-a]pyridin-6-yl)-1H-pyrazolo[3,4-d]pyrimidin-6-amine]
Rat hepatocyte CLint (μl/min/10^−6 cells) (Rat hepatocyte): 9.6 μl/min/10^−6 cells
microsomal CLint at 1 μM [1]: 71.1 µL/min/mg
efflux ratio at 120 min, 5 μM (MDR1, BCRP): 2
IC50 [2]: 1.6 nM

Cc1cc2ncnn2cc1Nc1ncc2c(n1)c(C(C)C)nn2C [Example 4, 3-isopropyl-1-methyl-N-(7-methyl-[1,2,4]triazolo[1,5-a]pyridin-6-yl)-1H-pyrazolo[4,3-d]pyrimidin-5-amine]
Rat hepatocyte CLint (μl/min/10^−6 cells) (Rat hepatocyte): 10.7 μl/min/10^−6 cells
microsomal CLint at 1 μM [1]: 47.3 µL/min/mg
efflux ratio at 120 min, 5 μM (MDR1, BCRP): 0.9
IC50 [2]: 1.6 nM

Cc1cc2ncnn2cc1Nc1ncc2c(C)nn(C3CC(C)OC(C)C3)c2n1 (single isomer, unassigned) [Example 86, 1-(2,6-dimethyltetrahydro-2H-pyran-4-yl)-3-methyl-N-(7-methyl-[1,2,4]triazolo[1,5-a]pyridin-6-yl)-1H-pyrazolo[3,4-d]pyrimidin-6-amine]
Rat hepatocyte CLint (μl/min/10^−6 cells) (Rat hepatocyte): 33.4 μl/min/10^−6 cells
microsomal CLint at 1 μM [1]: > 300 µL/min/mg
efflux ratio at 120 min, 5 μM (MDR1, BCRP): 1.4
IC50 [2]: 2.4 nM

CO[C@H]1CC[C@@H](c2nn(C)c3cnc(Nc4cn5ncnc5cc4C)nc32)CC1 [Example 8, 3-((1s,4s)-4-methoxycyclohexyl)-1-methyl-N-(7-methyl-[1,2,4]triazolo[1,5-a]pyridin-6-yl)-1H-pyrazolo[4,3-d]pyrimidin-5-amine]
Rat hepatocyte CLint (μl/min/10^−6 cells) (Rat hepatocyte): 20.7 μl/min/10^−6 cells
microsomal CLint at 1 μM [1]: 234 µL/min/mg
efflux ratio at 120 min, 5 μM (MDR1, BCRP): 1.7
IC50 [2]: 0.7 nM

COCCn1nc(C)c2cnc(Nc3cn4ncnc4cc3C)nc21 [Example 63, 1-(2-methoxyethyl)-3-methyl-N-(7-methyl-[1,2,4]triazolo[1,5-a]pyridin-6-yl)-1H-pyrazolo[3,4-d]pyrimidin-6-amine]
Rat hepatocyte CLint (μl/min/10^−6 cells) (Rat hepatocyte): 5.3 μl/min/10^−6 cells
microsomal CLint at 1 μM [1]: 5.5 µL/min/mg
efflux ratio at 120 min, 5 μM (MDR1, BCRP): 2.4
IC50 [2]: 36 nM

Cc1cc2ncnn2cc1Nc1ncc2c(C)nn(CC3CCCO3)c2n1 (single isomer, unassigned) [Example 50, 3-methyl-N-(7-methyl-[1,2,4]triazolo[1,5-a]pyridin-6-yl)-1-((tetrahydrofuran-2-yl)methyl)-1H-pyrazolo[3,4-d]pyrimidin-6-amine]
Rat hepatocyte CLint (μl/min/10^−6 cells) (Rat hepatocyte): 2.1 μl/min/10^−6 cells
microsomal CLint at 1 μM [1]: 12.2 µL/min/mg
efflux ratio at 120 min, 5 μM (MDR1, BCRP): 2.7
IC50 [2]: 7 nM

CO[C@H]1CC[C@H](n2nc(C)c3cnc(Nc4cn5ccnc5cc4C)nc32)CC1 [Example 26, 1-((1r,4r)-4-methoxycyclohexyl)-3-methyl-N-(7-methylimidazo[1,2-a]pyridin-6-yl)-1H-pyrazolo[3,4-d]pyrimidin-6-amine]
Rat hepatocyte CLint (μl/min/10^−6 cells) (Rat hepatocyte): 13.6 μl/min/10^−6 cells
microsomal CLint at 1 μM [1]: 134 µL/min/mg
efflux ratio at 120 min, 5 μM (MDR1, BCRP): 4.2
IC50 [2]: 3 nM

Cc1cc2ncnn2cc1Nc1ncc2c(C)nn(C3CCCOCC3)c2n1 (single isomer, unassigned) [Example 33, 3-methyl-N-(7-methyl-[1,2,4]triazolo[1,5-a]pyridin-6-yl)-1-(oxepan-4-yl)-1H-pyrazolo[3,4-d]pyrimidin-6-amine]
Rat hepatocyte CLint (μl/min/10^−6 cells) (Rat hepatocyte): 11.3 μl/min/10^−6 cells
microsomal CLint at 1 μM [1]: 41.5 µL/min/mg
efflux ratio at 120 min, 5 μM (MDR1, BCRP): 3
IC50 [2]: 1.5 nM

COc1ccc(Cn2nc(C)c3cnc(Nc4cn5ncnc5cc4C)nc32)cc1 [Example 18, 1-(4-methoxybenzyl)-3-methyl-N-(7-methyl-[1,2,4]triazolo[1,5-a]pyridin-6-yl)-1H-pyrazolo[3,4-d]pyrimidin-6-amine]
Rat hepatocyte CLint (μl/min/10^−6 cells) (Rat hepatocyte): 31.7 μl/min/10^−6 cells
microsomal CLint at 1 μM [1]: 153 µL/min/mg
efflux ratio at 120 min, 5 μM (MDR1, BCRP): 1.1
IC50 [2]: 2.6 nM

Cc1cc2ncnn2cc1Nc1ncc2c(C)nn(C3COC3)c2n1 [Example 44, 3-methyl-N-(7-methyl-[1,2,4]triazolo[1,5-a]pyridin-6-yl)-1-(oxetan-3-yl)-1H-pyrazolo[3,4-d]pyrimidin-6-amine]
Rat hepatocyte CLint (μl/min/10^−6 cells) (Rat hepatocyte): 1.9 μl/min/10^−6 cells
microsomal CLint at 1 μM [1]: 8.8 µL/min/mg
efflux ratio at 120 min, 5 μM (MDR1, BCRP): 4.3
IC50 [2]: 24 nM

Cc1cc2ncnn2cc1Nc1ncc2c(C)nn(C3CC4(C3)CC(F)(F)C4)c2n1 [Example 41, 1-(6,6-difluorospiro[3.3]heptan-2-yl)-3-methyl-N-(7-methyl-[1,2,4]triazolo[1,5-a]pyridin-6-yl)-1H-pyrazolo[3,4-d]pyrimidin-6-amine]
Rat hepatocyte CLint (μl/min/10^−6 cells) (Rat hepatocyte): 65.5 μl/min/10^−6 cells
microsomal CLint at 1 μM [1]: 216 µL/min/mg
efflux ratio at 120 min, 5 μM (MDR1, BCRP): 1.5
IC50 [2]: 1.4 nM

Cc1cc2ncnn2cc1Nc1ncc2c(n1)c(C1CCCCC1)nn2C [Example 5, 3-cyclohexyl-1-methyl-N-(7-methyl-[1,2,4]triazolo[1,5-a]pyridin-6-yl)-1H-pyrazolo[4,3-d]pyrimidin-5-amine]
Rat hepatocyte CLint (μl/min/10^−6 cells) (Rat hepatocyte): 22.8 μl/min/10^−6 cells
microsomal CLint at 1 μM [1]: 135 µL/min/mg
efflux ratio at 120 min, 5 μM (MDR1, BCRP): 0.8
IC50 [2]: 0.4 nM

Cc1cc2nccn2cc1Nc1ncc2c(C)nn(C3CCOCC3)c2n1 [Example 14, 3-methyl-N-(7-methylimidazo[1,2-a]pyridin-6-yl)-1-(tetrahydro-2H-pyran-4-yl)-1H-pyrazolo[3,4-d]pyrimidin-6-amine]
Rat hepatocyte CLint (μl/min/10^−6 cells) (Rat hepatocyte): 1.7 μl/min/10^−6 cells
microsomal CLint at 1 μM [1]: 9.9 µL/min/mg
efflux ratio at 120 min, 5 μM (MDR1, BCRP): 2.3
IC50 [2]: 1.6 nM

Cc1cc2ncnn2cc1Nc1ncc2c(C)nn(CCC#N)c2n1 [Example 72, 3-(3-methyl-6-((7-methyl-[1,2,4]triazolo[1,5-a]pyridin-6-yl)amino)-1H-pyrazolo[3,4-d]pyrimidin-1-yl)propanenitrile]
Rat hepatocyte CLint (μl/min/10^−6 cells) (Rat hepatocyte): 1.0 μl/min/10^−6 cells
microsomal CLint at 1 μM [1]: 5.9 µL/min/mg
efflux ratio at 120 min, 5 μM (MDR1, BCRP): 7.5
IC50 [2]: 1.8 nM

Cc1cc2ncnn2cc1Nc1ncc2c(C)nn(C3CCCOC3)c2n1 (single isomer, unassigned) [Example 29, 3-methyl-N-(7-methyl-[1,2,4]triazolo[1,5-a]pyridin-6-yl)-1-(tetrahydro-2H-pyran-3-yl)-1H-pyrazolo[3,4-d]pyrimidin-6-amine]
Rat hepatocyte CLint (μl/min/10^−6 cells) (Rat hepatocyte): 13.3 μl/min/10^−6 cells
microsomal CLint at 1 μM [1]: 24.5 µL/min/mg
efflux ratio at 120 min, 5 μM (MDR1, BCRP): 1.6
IC50 [2]: 2 nM

Cc1cc2ncnn2cc1Nc1ncc2c(C)nn(C3CC4(COC4)C3)c2n1 [Example 42, 3-methyl-N-(7-methyl-[1,2,4]triazolo[1,5-a]pyridin-6-yl)-1-(2-oxaspiro[3.3]heptan-6-yl)-1H-pyrazolo[3,4-d]pyrimidin-6-amine]
Rat hepatocyte CLint (μl/min/10^−6 cells) (Rat hepatocyte): 34.2 μl/min/10^−6 cells
microsomal CLint at 1 μM [1]: 19.5 µL/min/mg
efflux ratio at 120 min, 5 μM (MDR1, BCRP): 4.8
IC50 [2]: 7.5 nM
